System: 786-O cells
Assay: Cellular proliferation (Example B method), 786-O
Format: cell-based
Conditions: Homo sapiens, 786-0, renal cell carcinoma
Description: PC3 cells were obtained from the American Type Culture Collection (ATCC, Manassas, Va., Cat.# CRL-1435) Two thousand cells from the prostate cancer line PC3 were placed in 50 μL of complete RPMI 1640 media (Invitrogen, Carlsbad, Calif., Cat.#22400-105) with 10% fetal bovine serum (Invitrogen, Carlsbad, Calif., Cat.#10438-026) into each well of 96 well cell culture plates in a hexaplicate sampling pattern. A 50 μL aliquot of test compound (prepared from stock test compounds in DMSO diluted into media) was added to the appropriate well such that the final concentrations of test compound were 200, 40, 8, 1.6, 0.32, 0.064, 0.0128, 0.00256, and 0 μM and the final DMSO concentration was less than or equal to 0.2%.
The plates were incubated for 72 hours 37° C. in an atmosphere of 5% CO2. At the end of this time a 10 μL aliquot of WST solution (Roche Applied Science, Mannheim, Germany) was added into each of the wells. Cells were exposed to the WST solution for 4 hours. A SpectraMax Plus spectrophotometric plate reader (Molecular Devices, Sunnydale, Calif.) was then used to measure the optical density at 450 nm (OD450 nm). Sigmoidal curves were drawn for the dose responses and IC50 values were calculated using the software package GraphPad Prism4 (GraphPad Software, Inc., San Diego, Calif.).
Several other cancer cell lines were obtained from ATCC and grown according to their recommendations and treated with test compounds to obtain the concentration of test compound that inhibited the cellular proliferation by 50% of no-treatment controls. These IC50 values (μM) are listed in Table 7 below obtained by the methods described in Example B: […]

IC50: 3.32 µM
SMILES: O=c1cc(N2CCOCC2)oc2c(-c3ccc4c(c3)OCCO4)csc12 [Compound 28, 3-(2,3-dihydrobenzo[b][1,4]dioxin-6-yl)-5-morpholino-7H-thieno[3,2-b]pyran-7-one]

Source: patent US9981983B2, “Thienopyranones as kinase inhibitors” (SignalRx Pharmaceuticals, Inc., priority 2008, dated 2018)
